Like-named read-outs stand apart in the source and are kept apart here. Each block holds one compound with its values, some of them ahead of it.
Experiments:
[1] = Urinary excretion (0–24 h) of phenolic compounds after 'Ataulfo' mango flesh or juice, HPLC-ECD; conditions: for detection in urine: after mango flesh and juice consumption, 0–24 h; for urinary excretion, juice group versus flesh group: at 0–4 and 4–8 h, normalized to creatinine
Description: (§1) Twelve middle-aged healthy men aged 22 to 34 years were recruited from CIAD. […] All subjects were free of diagnosed heart disease, homeostatic disorders, gastrointestinal disease, or other medical conditions; they were not taking any medication or any vitamin/mineral supplement.
(§2) After baseline (time 0), blood and urine were collected, subjects were randomly assigned to consume mango flesh slices or juice in a 10-min period, in random order separated by a 3 day wash-out period. […] Blood was collected in a vacutainer tube containing EDTA as anticoagulant. Plasma was recovered, and 0.5 mL aliquots were immediately acidified using 20 µL of 4 M HCl. Acidified plasma and urine samples were stored at −80 °C until analysis. During blood collection, subjects were only allowed water, other foods and beverages were not allowed. They were given a hamburger without vegetables and ketchup for lunch. For dinner, they were allowed to eat a meal, but with the same restrictions as those of the wash-out period.
(§3) Phenolics in urine were quantified according to the method of McKay et al. [20]. Urine (200 µL) was dissolved in 800 µL of buffer (0.1 M sodium acetate, pH 5) and 30 µL of β-glucuronidase/sulfatase (98,000 kU/L β-glucuronidase and 2400 kU/L sulfatase), and incubated at 37 °C for 60 min. After incubation, 10 µL of 100 µg/mL internal standard (2′,3′,4′-trihydroxyacetophenone) and 200 µL glacial acetic acid were added, and the mixture was briefly vortexed. After the addition of approximately 1 g of NaCl, phenolics were extracted twice with 3 mL of ethyl acetate. The combined ethyl acetate fractions were dried under nitrogen gas and reconstituted in 1 mL of the aqueous HPLC mobile phase, filtered through a 0.22-µm Millex syringe-driven filter (Millipore Corporation, Bedford, MA, USA), and injected (50 µL) onto the HPLC-ECD system. […] The intraday CV for standards spiked into urine was <7%. Urinary phenolics were normalized to creatinine concentration, which was measured with a commercial kit.

clinical = conditions: for AUC/Dose: dose-adjusted AUC 0 to 6 h, n = 12
Description: Phenolics in plasma were quantified according to the method of Chen, Milbury, Lapsley, and Blumberg. […] Subsequently, phenolics were extracted with acetonitrile. After centrifugation, the supernatant was removed, dried with nitrogen gas, and reconstituted in the aqueous HPLC mobile phase, filtered using Ultrafree Durapore Centrifugal filter devices (0.22, Merck Millipore, Billerica, MA, USA), and injected into the HPLC- ECD system, using previously optimized chromatographic conditions. The mobile phases were 75 mM citric acid and 25 mM ammonium acetate in 90% water/10% acetonitrile (A), and 75 mM citric acid and 25 mM ammonium acetate in 50% water/50% acetonitrile (B).
Results are expressed as mean ± standard deviation (SD). The maximum concentration (Cmax) in plasma and the time to reach Cmax (Tmax) were visually identified. The area under the concentration-time curve (AUC) of plasma phenolics was calculated using the linear trapezoidal integration equation [24]. The differences in Cmax, Tmax, and AUC of phenolics between mango flesh and juice treatments were examined using an analysis of covariance, with time 0 values as the covariant, followed by the Tukey-Kramer multi-comparison test. The Number Cruncher Statistical System version 6.0 software (NCSS, NCSS LLC, Kaysville, UT, USA) was used to perform all statistical analyses.

[2] = in vivo
Description: as §1, §2, §3

[3] = after mango flesh and juice consumption, 0–6 h
[4] = male, human, plasma, oral, 500 g, AUC, plasma, time 0 to 6 h, after 500 g mango flesh, n = 12, mean ± SD
[5] = male, human, plasma, oral, 500 g, Cmax, plasma, after 500 g mango flesh, healthy men, n = 12, mean ± SD
[6] = male, human, plasma, oral, 500 g, Tmax, plasma, after 500 g mango flesh, healthy men, n = 12, mean ± SD
[7] = male, human, plasma, oral, 721 g, AUC, plasma, time 0 to 6 h, after 721 g mango juice, n = 12, mean ± SD
[8] = male, human, plasma, oral, 721 g, Cmax, plasma, after 721 g mango juice, healthy men, n = 12, mean ± SD
[9] = male, human, plasma, oral, 721 g, Tmax, plasma, after 721 g mango juice, healthy men, n = 12, mean ± SD
[10] = plasma, after 500 g mango flesh
[11] = plasma, after 721 g mango juice
[12] = plasma, after 500 g mango flesh, healthy men, n = 12, mean ± SD
[13] = plasma, after 721 g mango juice, healthy men, n = 12, mean ± SD

SMILES: O=C(O)/C=C/c1ccc(O)cc1 [p-coumaric acid]
detection in urine [1]: detected in urine
urinary excretion, juice group versus flesh group [1]: significantly higher

SMILES: O=C(/C=C/c1ccc(O)c(O)c1)O[C@@H]1C[C@](O)(C(=O)O)C[C@@H](O)[C@H]1O [Chlorogenic acid, chlorogenic acid]
detection in plasma (clinical; [3]): detected in plasma
AUC (clinical; [4]): 209 ± 24.5 ng·h/mL
Cmax (clinical; [5]): 49.7 ± 7.3 ng/mL
Tmax (clinical; [6]): 3.5 ± 1.4 h
AUC (clinical; [7]): 367 ± 131 ng·h/mL
Cmax (clinical; [8]): 109.7 ± 0.26 ng/mL
Tmax (clinical; [9]): 2.5 ± 1.8 h
higher absorption from mango juice (clinical; mango juice compared with flesh): 62%
AUC/Dose (clinical; [10]): 11.5 ± 1.78 (ng h/mL)/mg
AUC/Dose (clinical; [11]): 50.12 ± 15.5 (ng h/mL)/mg

SMILES: Oc1cccc(O)c1O [Pyrogallol, pyrogallol]
detection in urine [1]: found in urine

SMILES: COc1cc(/C=C/C(=O)O)ccc1O [Ferulic acid, ferulic acid]
detection in urine [1]: detected in urine
urinary excretion, juice group versus flesh group [1]: significantly higher
detection in plasma (clinical; [3]): detected in plasma
Cmax (clinical; [12]): 16.5 ± 3.9 ng/mL
Tmax (clinical; [12]): 2.8 ± 2.1 h
Cmax (clinical; [13]): 32.7 ± 10.9 ng/mL
Tmax (clinical; [13]): 2.3 ± 1.5 h
AUC/Dose (clinical; [10]): 31.0 ± 9.63 (ng h/mL)/mg
AUC/Dose (clinical; [11]): 83.8 ± 30.2 (ng h/mL)/mg
AUC (clinical; plasma, time 0 to 6 h, after 500 g mango flesh, n = 12, mean ± SD): 60.2 ± 22.7 ng·h/mL
AUC (clinical; plasma, time 0 to 6 h, after 721 g mango juice, n = 12, mean ± SD): 133.4 ± 47.7 ng·h/mL

SMILES: O=C(O)c1cc(O)c(O)c(O)c1 [Gallic acid, gallic acid]
AUC (clinical; male, human, in vivo): 38.5 ± 14.5 ng·h/mL
Cmax (clinical; male, human, in vivo): 7.9 ± 4.7 ng/mL
AUC (clinical; male, human, in vivo, AUC): 36.9 ± 24.3 ng·h/mL
Cmax (clinical; male, human, in vivo, Cmax): 8.7 ± 1.7 ng/mL
Tmax (clinical; male, human, in vivo, Tmax, plasma, after 500 g mango flesh, healthy men, n = 12, mean ± SD): 4.4 ± 1.1 h
Tmax (clinical; male, human, in vivo, Tmax, plasma, after 721 g mango juice, healthy men, n = 12, mean ± SD): 3.5 ± 1 h

Results, then the compound that gave them:

detection in plasma (clinical; in vivo): not in plasma
urinary AUC/dose excretion ([2]; human): Higher
detection in urine [2]: detected in urine
SMILES: COc1cc(/C=C/C(=O)O)cc(OC)c1O [sinapic acid]

detection in urine [1]: not in urine
detection in plasma (clinical; [3]): detected in plasma
AUC (clinical; male, human, in vivo): 50.9 ± 11.0 ng·h/mL
Cmax (clinical; male, human, in vivo): 12.2 ± 0.2 ng/mL
Tmax (clinical; male, human, in vivo): 2.8 ± 1.9 h
AUC (clinical; male, human, in vivo, AUC): 53.1 ± 8.3 ng·h/mL
Cmax (clinical; male, human, in vivo, Cmax): 11.8 ± 2.1 ng/mL
Tmax (clinical; male, human, in vivo, Tmax): 4 ± 1.4 h
AUC/Dose (clinical; [10]): 221.2 ± 34.0 (ng h/mL)/mg
AUC/Dose (clinical; [11]): 282.7 ± 59.1 (ng h/mL)/mg
SMILES: O=C(O)c1cc(O)ccc1O [Gentisic acid, gentisic acid]

detection in urine [1]: not in urine
detection in plasma (clinical; [3]): detected in plasma
AUC (clinical; [4]): 141 ± 73.9 ng·h/mL
Cmax (clinical; [5]): 30.8 ± 13.3 ng/mL
Tmax (clinical; [6]): 3.5 ± 2 h
AUC (clinical; [7]): 109 ± 5.4 ng·h/mL
Cmax (clinical; [8]): 34.5 ± 18 ng/mL
Tmax (clinical; [9]): 3.7 ± 1.7 h
greater absorption from mango flesh (clinical; mango flesh compared with juice): 49%
AUC/Dose (clinical; [10]): 344.8 ± 138.3 (ng h/mL)/mg
AUC/Dose (clinical; [11]): 204.90 ± 9.9 (ng h/mL)/mg
SMILES: O=C(O)c1ccc(O)c(O)c1 [Protocatechuic acid, protocatechuic acid]

detection in urine [1]: detected in urine
urinary AUC/dose excretion ([1]; compared with the other urinary phenolics, values higher in the juice group): Higher
detection in plasma (clinical; [3]): not in plasma
SMILES: COc1cc(C(=O)O)ccc1O [Vanillic acid, vanillic acid]
